Data published in publication PMC12426930, “Antioxidant, Hypotensive, and Antidiabetic Breakthroughs: Bromelain Hydrolysis Unlocks Quinoa’s Peptide Potential - In Silico and In Vitro Approach” (Journal of Agricultural and Food Chemistry, 2025).
Marks after values point to notes of the source that are not given here.

Tests used:
α-glucosidase = settings: 250 μM; ref Vilcacundo et al. [40]; cited from earlier work
Source text: The inhibitory effects of quinoa-derived peptides (YDDER, NIYQIS, and QDQHQKIR) toward α-glucosidase are depicted in Table .

DPP-IV = system: DPP-IV; parameters: method as in Vilcacundo et al. [40]; settings: 250 μM; ref Vilcacundo et al. [40]; cited from earlier work
[1] = ref Zheng et al. [24]; cited from earlier work
Source text: (§1) Yudho-Sutopo et al. reported the ACE-I inhibitory activity of four synthetic peptides from pearl garlic (DHSTAVW, KLAKVF, KLSTAASF, and KETPEAHVF). […] According to Yudho-Sutopo et al., the hydrophobic amino acid in the C-terminal and amino acids with a positively charged side-chain amino group, like in DHSTAVW, are determinants in the inhibition of ACE-I. Furthermore, a study by Zheng et al. reported an ACE-I inhibitory peptide – RGQVIYVL – from Chenopo ...

ACE-I = settings: Chenopodium quinoa Willd peptide; ref Zheng et al. [24]; read-out: ACE-I inhibition IC50; cited from earlier work
Source text: as §1

α-amylase = settings: ref Zhou et al. [70]; cited from earlier work
Source text: As α-amylase plays a significant role in T2DM, this study investigated the inhibitory effects of synthetic quinoa peptides on this enzyme.

[2] = system: rat intestinal acetone α-glucosidase; assay: α-Glucosidase inhibition; assay type: biochemical
Experimental: α-Glucosidase inhibition assay was measured following the method of Vilcacundo et al., with slightly modifications. First, 100 μL of sample ([…]), positive control (1 mM acarbose), and/or negative control (Milli-Q-water), were added to 50 μL of rat intestinal acetone α-glucosidase (1 U/mL in 0.1 M, maleate buffer pH 6.9), and the mixture was incubated at 37 °C for 5 min. Then, 50 μL of substrate (2 mM maltose) was added into each tube, which was performed in a Thermomixer (37 °C, 1000 rpm, for 30 min). Finally, the reaction was stopped at 100 °C for 5 min. The glucose concentration in the reaction was measured using GOPOD (glucose oxidase/peroxidase) from Megazyme, with absorbance measured at 560 nm (Gen5 software, version 1.1, BioTek Instruments, Winooski, VT, USA). The percentage of inhibition was calculated relative to the non-inhibited control (negative control).

Cu^2+ chelation assay = settings: pyrocatechol violet, pH 6.0, 37 °C, 10 min, mean ± SD, n = 9
Experimental: Cu^2+ chelation assay was determined according to Sanchez-Velazquez et al., with slight modifications. Briefly, 21 μL of sample (synthetic peptides, […]) or positive control (EDTA, 0.1 μg/μL) was added to 185 μL of buffer (sodium acetate, 50 mM, pH 6.0), and then 15 μL of copper solution (10 μg) and 9 μL of pyrocatechol violet (2 mM) were added for the reaction. For the blank well, 205 μL of buffer was added to the copper and pyrocatechol violet reaction mixture. The reaction was incubated for 10 min at 37 °C and then read at 632 nm (SPARK-10M, TECAN, Switzerland). Cu^2+ chelating activity was calculated as: %Chelatingactivity=Abscontrol−Abssample/Abscontrol×100

[3] = system: angiotensin I converting enzyme; assay: ACE-I inhibitory activity (fluorometric kit CS0002); assay type: biochemical; settings: fluorometric kit, 37 °C, mean ± SD, n = 9
Experimental: ACE-I inhibitory assay was determined by ACE-I activity assay kit (fluorometric, CS0002). This assay is based on the hydrolysis of angiotensin I by ACE to yield angiotensin II. Briefly, all reagents were diluted in the assay buffer, and a total of 50 μL of peptide sample, positive control (captopril PHR1307), and assay buffer (blank) were added to a 96-well black plate. The standard was added at 0, 0.1, 0.2, 0.3, 0.4, 0.5, 0.6, and 0.8 nmol and adjusted to a final volume of 100 μL. […] Finally, fluorescence (λex, 320 nm; λem, 405 nm) was measured in five cycles for 5 min. Linear regressions were determined to calculate the enzymatic activity for each sample per concentration. Thus, one unit was defined as the amount of enzyme that releases 1 nmol of fluorescent substrate in 1 min at 37 °C. Finally, the inhibition (%) of each peptide and positive control was determined using regression analysis of the corresponding dose–response curves.

[4] = system: porcine pancreatic α-amylase (PPA); assay: α-Amylase inhibition; assay type: biochemical; settings: CNPG3 substrate, 405 nm, 37 °C, mean ± SD, n = 9
Experimental: α-Amylase inhibition activity was performed using the 3,5-dinitrosalicylic acid (DNS) assay according to Zulfiqar et al. […] Then, 50 μL of substrate (2-chloro-4-nitro-[…] (CNPG3) (2 mM)) was added per well. Finally, absorbance was recorded at 405 nm (SPARK-10M, TECAN, Switzerland) at 37 °C for 10 min in 1-min intervals. The percentage of enzyme inhibition was calculated in relation to 100% enzymatic activity in the negative control (phosphate-buffered saline (PBS) buffer, enzyme, and substrate).

Fe^2+ chelation assay = settings: 125 μM; ferrozine, pH 4.9, 37 °C, 10 min; mean ± SD, n = 9
Experimental: Fe^2+ chelation assay was measured according to Sanchez-Velazquez et al. with slightly modifications. 25 μL of sample (synthetic peptides, […]) or positive control (EDTA, 0.1 μg/μL) was added to 225 μL of buffer (sodium acetate, 100 mM, pH 4.9), then 15 μL of iron solution (0.1%, w/v) and 9 μL of ferrozine (40 mM) were added to start the reaction. For the blank well, 250 μL of buffer was added to the iron solution and ferrozine. The reaction was incubated 10 min at 37 °C and then read at 562 nm (SPARK-10M, TECAN, Switzerland). Fe^2+ chelating activity was calculated as described previously for copper.

human DPP-IV = assay: DPP-IV inhibitory activity; assay type: biochemical; settings: H-Gly-Pro-pNA, 37 °C, mean ± SD, n = 9
Experimental: Dipeptidyl peptidase-IV (DPP-IV) inhibitory activity was measured following the method by Vilcacundo et al., with slightly modifications. […] For the negative control 70 μL of Tris Buffer was added. Finally, 100 μL of substrate (H-Gly-Pro-pNA, 100 mM) was added to all wells. The reaction was performed at 37 °C in the microplate reader (BioTek Instruments, Winooski, VT, USA), and the reaction was read at 405 nm for 30 min, with reading intervals of 2 min. Finally, data were plotted and fitted to a logarithmic regression to obtain dose–response curves.

[5] = Oxygen radical absorbance capacity (ORAC) assay; settings: AAPH, fluorescein, 37 °C, 150 min
Experimental: Oxygen radical absorbance capacity (ORAC) assay was performed following the method of Carvalho-Oliveira et al. Briefly, 30 μL of peptide (different concentrations 50–1000 μM) or standard (Trolox at 0–160 μM) were placed in a black 96-well plate. The reaction mixture comprised 180 μL of fluorescein (116.9 nM) and 90 μL of 2,2’-azobis(2-amidinopropane) dihydrochloride (AAPH) (40 mM). Finally, the fluorescence was recorded every 2 min for 150 min at excitation and emission wavelengths of 485 and 520 nm, respectively. All reactions were performed at 37 °C. The results were expressed as μmol Trolox equivalent (TE)/μmol of peptide. Quantification and interpretation of the data were done by Gen5 software, version 1.1 (BioTek Instruments, Winooski, VT, USA).

[6] = system: 15-LOX enzyme (soybean lipoxygenase); assay: Lipoxygenase inhibitor screening assay (LOX); assay type: biochemical; settings: 31.25 μM; linoleic acid 1 mM, RT, 490 nm
Experimental: Lipoxygenase inhibitory activity assay (LOX) was determined following the manufacturer’s instructions (#760700). Thus, peptide concentrations (31.25–125 μM) were prepared with the assay buffer and tested in triplicate. First, 10 μL of the peptides at each concentration was mixed with 90 μL of 15-LOX enzyme (soybean lipoxygenase) in a 96-well plate. Then, three wells each contained assay buffer as blank (without enzyme), assay buffer as vehicle (with enzyme), and 15-LOX as positive control. Afterward, 10 μL of linoleic acid (1 mM) (substrate) was added to all wells and shaken for 10 min at RT. Finally, 100 μL of chromogen was added to all wells, and the plate was sealed and shaken for an additional 5 min at RT. The final reaction was measured at 490 nm, and the percentage of inhibition was calculated as. %inhibition=[1−Correctedvaluesofpeptide/Correctedvaluesofvehicle]×100

## IQEGGLT [quinoa-derived peptide reported by Vilcacundo et al]
α-glucosidase
  α-glucosidase inhibition: 55.85%

## IQAQGGLT [DPP-IV quinoa-derived peptide reported by Vilcacundo et al]
DPP-IV
  DPP-IV inhibition: 17.05%

## RGQVIYVL
[1]
  hydrophobic residue content: 62.50%
ACE-I
  IC50: 38.2 µM

## MMFPH [quinoa-derived peptide reported by Zhou et al]
α-amylase
  α-amylase inhibition: stronger α-amylase inhibition

## QDQHQKIR [quinoa 11S globulin peptide, custom-synthesized by GenScript, purity 95%]
[2]; 300 μM, 2 mM maltose, pH 6.9, 37 °C, mean ± SD, n = 9
  α-glucosidase inhibition: ND (no inhibitory effect was observed at the given concentration)
[2]; 400 μM, 2 mM maltose, pH 6.9, 37 °C, mean ± SD, n = 9
  α-glucosidase inhibition: ND (no inhibitory effect was observed at the given concentration)
[2]; 500 μM, 2 mM maltose, pH 6.9, 37 °C, mean ± SD, n = 9
  α-glucosidase inhibition: ND (no inhibitory effect was observed at the given concentration)
[2]; any of the tested concentrations (100–500 μM)
  α-glucosidase inhibition: did not present any α-glucosidase inhibition
Cu^2+ chelation assay; 15.62 μM
  Cu^2+ chelating activity: 39.79 ± 1.4%
Cu^2+ chelation assay; 31.25 μM
  Cu^2+ chelating activity: 37.46 ± 0.26%
Cu^2+ chelation assay; 62.5 μM
  Cu^2+ chelating activity: 40.8 ± 0.31%
[3]; 125 μM
  ACE-I inhibition: 6.8 ± 0.56^f %
[3]; 250 μM
  inhibition: 9.75 ± 0.21%
[4]; 300 μM
  α-amylase inhibition: 18.43 ± 0.33^a %
[4]; 400 μM
  inhibition: 15.6 ± 0.34%
[4]; 500 μM
  α-amylase inhibition: 15.37 ± 0.35^b %
Fe^2+ chelation assay
  Fe^2+ chelating activity: 5.11 ± 1.0%
Human DPP-IV; 125 μM
  DPP-IV inhibition: ND (no inhibitory effect was observed at the given concentration)
Human DPP-IV; 250 μM
  DPP-IV inhibition: ND (no inhibitory effect was observed at the given concentration)
Human DPP-IV; 500 μM
  DPP-IV inhibition: 5.26 ± 0.30^c %
[5]
  ORAC: 0.02 μmol TE/μmol peptide
[5]; mean ± SD, n = 9
  ORAC: 0.02 ± 0.00^c μM TE/μM Peptide
[6]
  LOX inhibition: 8.44%
